Earlier results, collected in patent publication US20060078922A1, “Novel purified polypeptides from haemophilus influenzae” (Affinium Pharmaceuticals, Inc., priority 2003, published 2006).

Target: phosphopantetheine adenyltransferase (Escherichia coli, UniProt P0A6I6)
Conditions: qualitative statement, species not given

Sequence of phosphopantetheine adenyltransferase (P0A6I6 whole entry): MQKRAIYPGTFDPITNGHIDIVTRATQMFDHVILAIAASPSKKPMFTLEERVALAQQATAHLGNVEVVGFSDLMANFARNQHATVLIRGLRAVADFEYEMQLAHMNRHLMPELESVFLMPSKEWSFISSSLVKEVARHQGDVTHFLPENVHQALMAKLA

SMILES: CC(C)(COP(=O)(O)OP(=O)(O)OC[C@H]1O[C@@H](n2cnc3c(N)ncnc32)[C@H](O)[C@@H]1OP(=O)(O)O)[C@@H](O)C(=O)NCCC(=O)NCCS [Coenzyme-A]
- inhibition of phosphopantetheine adenyltransferase: known to inhibit
